Columns and labels:
[1] = Stability of CB[n] and i-CB[n] on heating in acid (product resubmission); format: physicochemical; conditions: purified compound heated in conc. DCl
Excerpt: The fact that the isomerization of methylene bridged glycoluril dimmers follows mechanism 3 is not only useful in the synthesis of our compounds, but is important for the tailored synthesis of CB[n] and its derivatives. For example, Day and co-workers have recently shown that heating purified CB[8] in conc. […] (Scheme 3). In contrast, pure CB[5], CB[6], and CB[7] are stable under these conditions. […] This type of reaction would likely follow a pathway related to mechanism 1. […] In aqueous acid, it is likely that H2O can compete with the internal N and O nucleophiles of mechanism 3 for the capture of 19 (Scheme 2), effectively forcing fragmentation of the methylene bridges by a variation of mechanism 1. In the absence of competing nucleophiles, under anhydrous acidic conditions, CB[n] (n>8) and derivatives display enhanced stability. This facilitates the preparation of higher CB[n] compounds in a controllable manner when using anhydrous acidic conditions where water-sensitive functional groups are present. If such groups are not present acidic aqueous conditions may be used.
By “anhydrous acidic conditions,” we mean that in initial attempts “standard conditions” (ClCH2CH2Cl, anh. PTSA, reflux) are used, and if solubility problems occur then neat anhydrous PTSA (m.p. 38° C.) and/or CH3SO3H may be used. Based on results, CB[8] is stable to these conditions as depicted in Scheme 3. […]

[2] = Isothermal titration calorimetry of i-CB[7] with guest 3; format: binding; conditions: ITC, water, 30° C.
Method: FIG. 23 is a thermogram (top) and binding isotherm (bottom) of (ferrocenemethyl) trimethyl ammonium in complexing with i-CB[7] at 303K.
Because of their smaller cavities and more open portals i-CB[6] and i-CB[7] bind most guest molecules less tightly than their CB[n] counterparts do. For example, when a light excess of 1 is added to a solution containing CB[6] and i-CB[6] Alkyl ammonium ions such as 2 are known to bind tightly to CB[6] with values of Ka in the μM range. In contrast, 2 bind less strongly to i-CB[6] […] The association constants (Ka) for the guests 1, 2, and 3 with i-CB[7] measured by isothermal titration calorimetry (ITC) are (9±1)×10^6 M^−1, (8.8±0.9)×10^5 M^−1, and (2.2±0.1)×10^6 M^−1, respectively, which are 2 to 6 order of magnitude lower than those with CB[7].
(§1) General. […] Melting points were measured on a Meltemp apparatus in open capillary tubes and are uncorrected. IR spectra were recorded on a Nicolet Magna or on a Perkin Elmer Spectrum GX FT-IR spectrophotometers as KBr pellets and are reported in cm^−1. NMR spectra were measured on a Bruker AM400 or on a Bruker DRX500 spectrometers operating at 400 or 500 MHz for ^1H and 100 or 125 MHz for ^13C. […] The formation constants for the inclusion of several guests in iCB[7] were determined by isothermal titration calorimetry using a VP-ITC instrument from MicroCal. […]

[3] = 1H NMR competition of guests 1 and 2 for i-CB[7]; format: binding; conditions: 1 and 2 in ratio 1:1:1
Excerpt: (§2) FIG. 6 illustrates ^1HNMR spectra recorded for: a)) i-CB[6], CB[6] and 1 in a ratio of 1:1:2 (0.5M NaCl), and b) i-CB[7], 1 and 2 in a ratio of 1:1:1 (500 MHz, D2O), RT).
For example, i-CB[7] binds aromatic guest 1 more strongly than linear aliphatic guest 2. […] Thus, the inverted glycoluril unit modulates guest binding affinity and rates of dissociation, both of which are of critical importance in the creation of CB[n] based molecular machines.

[4] = Isothermal titration calorimetry of i-CB[7] with guest 2; format: binding; conditions: ITC, water, 30° C.
Method: (§3) Because of their smaller cavities and more open portals i-CB[6] and i-CB[7] bind most guest molecules less tightly than their CB[n] counterparts do. For example, when a light excess of 1 is added to a solution containing CB[6] and i-CB[6] Alkyl ammonium ions such as 2 are known to bind tightly to CB[6] with values of Ka in the μM range. In contrast, 2 bind less strongly to i-CB[6] […] Similarly, i-CB[7] retains the ability to bind to guests commonly bound to CB[7]1,8 (e.g. 1.2, and (ferrocenemethyl)trimethylammonium ion (3)) but with lower affinity and higher kinetic liability. The association constants (Ka) for the guests 1, 2, and 3 with i-CB[7] measured by isothermal titration calorimetry (ITC) are (9±1)×10^6 M^−1, (8.8±0.9)×10^5 M^−1, and (2.2±0.1)×10^6 M^−1, respectively, which are 2 to 6 order of magnitude lower than those with CB[7].
as §1

[5] = Isothermal titration calorimetry of i-CB[7] with guest 1; format: binding; conditions: ITC, water, 30° C.
Method: as §3, §1

[6] = Solubility of CB[n] in water, aqueous MeOH, HCl and Na2SO4 solutions; format: physicochemical; conditions: for solubility in 50% aqueous MeOH solution (v/v): 50% aqueous MeOH (v/v)
Method: CB[5]. […] By washing the crude solids repeatedly with large volumes of water a mixture of CB[5] and CB[7] was isolated. […] The solubility of CB[7] is less than 4 mg/mL in this solution. By extracting the solid mixture of CB[5] and CB[7] with 50% aq. MeOH CB[5] is separated from CB[7].
CB[8]. […] By washing the crude mixture of CB[6], CB[8], CB[5]@CB[10], introverted CB[6], and CB[8] with 3 M HCl CB[8] is isolated as an insoluble solid.
Introverted CB[6]. […] Na2SO4 which allows it to be isolated as an insoluble solid by washing and filtration.
Subsequent purification. The separation of each component (CB[5], CB[6], CB[7], CB[8], and iCB[6]) from Crop 1 and Crop 2 was enabled due to their differential solubility in HCl solutions. • CB[5] and CB[7]. […] By washing the crude mixture of CB[6], Cb[8], and iCB[6] with 3.5 M HC1 it is possible to isolate Cb[8] as an insoluble solid. • iCB[6] and CB[6]. CB[6] and iCB[6] were separated by fractional crystallization from different concentration HC1 solutions. For example, the initial CB[6]/iCB[6] mixture was recrystallized from a minimum volume of conc. HC1. The filtrate is enriched in iCB[n]; adding the filtrate to MeOH gives the precipitate which is filtered and dried. The solid now enriched in iCB[6] is recrystallized from 17.5% HC1 which gives CB[6] as a solid and filtrate further enriched in iCB[6]. In this manner, the ratio of iCB[6];CB[6] is raised to ≈80:20. At this point, the mixture is dissolved in a minimum of conc. HC1. To this solution is added enough H2N(CH2)6NH2 to complex all of the CB[6] (≈25%). This solution is then diluted 5-fold with H20. The precipitate is isolated by centrifugation and washed several times with H2O which yields iCB[6] as a white solid in 2% overall yield.

[7] = conc. HCl 100° C., reported by Day and co-workers; cited from earlier work
[8] = 1H NMR competition of CB[6] and i-CB[6] (1:1) for guest 1; format: binding; conditions: slight excess of 1 added to CB[6] and i-CB[6] (1:1)
Method: as §2, §3

With i-CB[7] the “outcome of heating in conc. DCl” value [1] was “a 4:1 mixture of CB[6], and CB[7] was obtained”, the “association constant (Ka) for guest 3” value [2] was “(2.2±0.1)×10^6 M^−1” and the “guest preference in presence of 1 equiv 1 and 2” value [3] was “the majority of i-CB[7] forms a complex with 1”. For the same compound, the “association constant (Ka) for guest 2” value [4] was “(8.8±0.9)×10^5 M^−1” and the “association constant (Ka) for guest 1” value [5] was “(9±1)×10^6 M^−1”.

In the case of `O=C1N2CN3C(=O)N4CN5C(=O)N6CN7C(=O)N8CN9C(=O)N%10CN1C1C2N2CN%11C(=O)N(CN%12C(=O)N(CN%13C(=O)N(CN%14C(=O)N(CN1C2=O)C%10C9%14)C8C7%13)C6C5%12)C4C3%11` (stereo not drawn) [CB[5]], the “solubility in 50% aqueous MeOH solution (v/v)” value [6] is listed as “about 33 mg/mL”, the solubility in water [6] is listed as “moderate solubility” and the “stability on heating in conc. HCl” value [7] is listed as “stable”.

In the case of `O=C1N2CN3C(=O)N4CN5C(=O)N6CN7C(=O)N8CN9C(=O)N%10CN%11C(=O)N%12CN%13C(=O)N%14CN1C1C2N2CN%15C(=O)N(CN%16C(=O)N(CN%17C(=O)N(CN%18C(=O)N(CN%19C(=O)N(CN%20C(=O)N(CN1C2=O)C%14C%13%20)C%12C%11%19)C%10C9%18)C8C7%17)C6C5%16)C4C3%15` (stereo not drawn) [CB[7]], the “solubility in 50% aqueous MeOH solution (v/v)” value [6] is given as “less than 4 mg/mL”, the solubility in water [6] is given as “moderate solubility” and the “stability on heating in conc. HCl” value [7] is given as “stable”.

In the case of `O=C1N2CN3C(=O)N4CN5C(=O)N6CN7C(=O)N8CN9C(=O)N%10CN%11C(=O)N%12CN1C1C2N2CN%13C(=O)N(CN%14C(=O)N(CN%15C(=O)N(CN%16C(=O)N(CN%17C(=O)N(CN1C2=O)C%12C%11%17)C%10C9%16)C8C7%15)C6C5%14)C4C3%13` (stereo not drawn) [CB[6]], the “solubility in 3 M HCl solution” value ([6]; 3 M HCl) is reported as “appreciable solubility”, the “solubility in 3.5 M HCl solution” value ([6]; 3.5 M HCl) is reported as “appreciable solubility” and the “share of host that forms a complex with guest 1” value [8] is reported as “almost all”. The “stability on heating in conc. HCl” value [7] was “stable”.
